Results published in US10196374B2 (AstraZeneca AB, priority 2014, dated 2019).

How the values were obtained:
[1] = target: T1, human glucocorticoid receptor (GR) (Homo sapiens (Human), UniProt P04150); assay: GRE Agonist Assay (ChagoK1 18:7:2 s4/GRE MMTV-GRE-LacZ reporter cell line); type: cell-based; settings: for Emax at 1 µM: ChaGo-K-1, relative to full agonist effect of dexamethasone, read-out: TA agonist Observed max Effect at 1 μM (%); for TA agonist pEC50: transactivation in agonist mode, ChagoK1 GRE-LacZ reporter cells, 24 hours
T1 sequence (P04150 whole entry): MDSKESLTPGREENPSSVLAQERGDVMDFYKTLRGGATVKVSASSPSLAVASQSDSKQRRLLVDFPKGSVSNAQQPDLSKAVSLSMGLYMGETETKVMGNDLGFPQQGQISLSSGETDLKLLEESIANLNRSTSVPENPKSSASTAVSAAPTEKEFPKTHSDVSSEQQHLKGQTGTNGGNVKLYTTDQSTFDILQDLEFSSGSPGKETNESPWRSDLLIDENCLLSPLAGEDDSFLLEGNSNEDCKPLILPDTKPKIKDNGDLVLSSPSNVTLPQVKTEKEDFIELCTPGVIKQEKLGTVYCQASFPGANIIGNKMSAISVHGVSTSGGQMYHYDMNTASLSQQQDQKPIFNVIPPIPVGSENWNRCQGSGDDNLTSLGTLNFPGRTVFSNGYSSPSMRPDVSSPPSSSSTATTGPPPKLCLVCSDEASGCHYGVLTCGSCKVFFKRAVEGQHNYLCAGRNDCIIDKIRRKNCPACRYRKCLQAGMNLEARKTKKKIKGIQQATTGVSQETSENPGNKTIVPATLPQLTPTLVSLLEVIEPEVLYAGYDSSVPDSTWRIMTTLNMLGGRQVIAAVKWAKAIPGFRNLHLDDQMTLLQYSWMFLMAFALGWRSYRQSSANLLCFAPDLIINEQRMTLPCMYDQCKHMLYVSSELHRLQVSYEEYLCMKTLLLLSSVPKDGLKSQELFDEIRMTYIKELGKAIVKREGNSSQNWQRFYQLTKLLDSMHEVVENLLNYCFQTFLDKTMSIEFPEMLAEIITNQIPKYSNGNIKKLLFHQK
Source text: GRE Agonist Assay A reporter cell line (ChagoK1 18:7:2 s4/GRE) was established by stable transfection of the human bronchogenic carcinoma cell line, ChaGo K1 (ATCC: HTB 168) with a MMTV-GRE-LacZ reporter construct. The generated cell line allows for identification of compounds showing agonist activity at the human glucocorticoid receptor (GR) via induction of LacZ gene expression. Ligand-activated GR binds to the Glucocorticoid Response Element (GRE) in the promoter of the LacZ gene and transcription is initiated. The resulting beta-galactosidase activity is measured through a colour reaction (change in absorbance). Cryo-preserved ChagoK1 18:7:2 s4/GRE cells were suspended in RPMI medium with 10% FBS, 1% NEAA and 1% sodium pyruvate, and seeded as 50000 cells/200 ul/well in 96-well plates and cultured at 37° C. with 5% CO2 and 95% humidity for 24 hours. 1 μl compound was added at different concentrations to the cells and incubated for another 24 hours. […] The reaction was then terminated by addition of 100 μl stop solution (300 mM glycine, 15 mM EDTA, pH 11.3, adjusted with NaOH). […]) Where A=min Y, B=max Y, C=log EC50 and D=Slope factor

[2] = target: T1, human glucocorticoid receptor (GR); assay: GRE Antagonist Assay (ChagoK1 18:7:2 s4/GRE reporter cells pre-stimulated with dexamethasone); type: cell-based; settings: for Emax at 1 µM: ChaGo-K-1, relative to full antagonist effect of Mifepristone (RU486), read-out: TA antagonist Observed max Effect at 1 μM (%); for TA antagonist pIC50: transactivation in antagonist mode, pre-stimulated with dexamethasone 70 nM
Source text: GRE Antagonist Assay A reporter cell line (ChagoK1 18:7:2 s4/GRE) was established by stable transfection of the human bronchogenic carcinoma celline, ChaGo K1 (ATCC: HTB 168) with a MMTV-GRE-LacZ reporter construct. The generated cell line allows for identification of compounds showing antagonist activity at the human glucocorticoid receptor (GR) via reduction of LacZ gene expression. Dexamethasone-activated GR binds to the Glucocorticoid Response Element (GRE) in the promoter of the LacZ gene and transcription is initiated. Antagonistic properties of compounds are assessed as beta-galactosidase intensity reduction from pre-stimulation with dexamethasone through a colour reaction (change in absorbance). Cryo-preserved ChagoK1 18:7:2 s4/GRE cells were suspended in RPMI medium with 10% FBS, 1% NEAA and 1% sodium pyruvate, and seeded as 50000 cells/200 ul/well in 96-well plates and cultured at 37° C. with 5% CO2 and 95% humidity for 24 hr. […] The reaction was then terminated by addition of 100 μl stop solution (300 mM glycine, 15 mM EDTA, pH 11.3, adjusted with NaOH). The plates were measured at 420 nm for absorbance in a SpectraMax reader (Molecular Device). […]) Where A=min Y, B=max Y, C=log IC50 and D=Slope factor

SMILES | Emax at 1 µM [1] | Emax at 1 µM [2] | TA agonist pEC50 [1] | TA antagonist pIC50 [2]
CC(C)[C@H](NC(=O)C(F)(F)F)[C@H](Oc1ccc2c(cnn2-c2ccc(=O)n(C)c2)c1)c1ccccc1 [Example 2, 2,2,2-trifluoro-N-[(1R,2S)-3-methyl-1-{[1-(1-methyl-6-oxo-1,6-dihydropyridin-3-yl)-1H-indazol-5-yl]oxy}-1-phenylbutan-2-yl]acetamide] | 25% | 67% |  | 
CC(C)[C@H](NC(=O)C(C)(F)F)[C@H](Oc1ccc2c(cnn2-c2ccc(=O)n(C)c2)c1)c1cccc(Cl)c1 [Example 5, N-[(1R,2S)-1-(3-chlorophenyl)-3-methyl-1-{[1-(1-methyl-6-oxo-1,6-dihydropyridin-3-yl)-1H-indazol-5-yl]oxy}butan-2-yl]-2,2-difluoropropanamide] | 28% | 72% | 8.6 | 6.7
CC(C)[C@H](NC(=O)C(C)(F)F)[C@H](Oc1ccc2c(cnn2-c2ccc(=O)n(C)c2)c1)c1ccc(Cl)cc1 [Example 7, N-[(1R,2S)-1-(4-chlorophenyl)-3-methyl-1-{[1-(1-methyl-6-oxo-1,6-dihydropyridin-3-yl)-1H-indazol-5-yl]oxy}butan-2-yl]-2,2-difluoropropanamide] | 46% | 54% | 8.1 | 7.1
CC(C)[C@H](NC(=O)C(C)(F)F)[C@H](Oc1ccc2c(cnn2-c2ccc(=O)n(C)c2)c1)c1cc(Cl)cc(Cl)c1 [Example 8, N-[(1R,2S)-1-(3,5-dichlorophenyl)-3-methyl-1-{[1-(1-methyl-6-oxo-1,6-dihydropyridin-3-yl)-1H-indazol-5-yl]oxy}butan-2-yl]-2,2-difluoropropanamide] | 36% | 56% | 7.7 | 6.8
CC(C)[C@H](NC(=O)C(C)(F)F)[C@H](Oc1ccc2c(cnn2-c2ccc(=O)n(C)c2)c1)c1ccc(C(F)(F)F)cc1 [Example 10, 2,2-difluoro-N-{(1R,2S)-3-methyl-1-{[1-(1-methyl-6-oxo-1,6-dihydropyridin-3-yl)-1H-indazol-5-yl]oxy}-1-[4-(trifluoromethyl)phenyl]butan-2-yl}propanamide] | 40% | 51% | 8.1 | 7.0
CC(C)[C@H](NC(=O)C(C)(F)F)[C@H](Oc1ccc2c(cnn2-c2ccc(=O)n(C)c2)c1)c1ccc(OC(F)F)cc1 [Example 11, N-[(1R,2S)-1-[4-(difluoromethoxy)phenyl]-3-methyl-1-{[1-(1-methyl-6-oxo-1,6-dihydropyridin-3-yl)-1H-indazol-5-yl]oxy}butan-2-yl]-2,2-difluoropropanamide] | 28% | 62% | 8.1 | 6.7
CC(C)[C@H](NC(=O)C(F)(F)F)[C@H](Oc1ccc2c(cnn2-c2ccc(=O)n(C)c2)c1)c1ccc(Cl)cc1 [Example 13, N-[(1R,2S)-1-(4-chlorophenyl)-3-methyl-1-{[1-(1-methyl-6-oxo-1,6-dihydropyridin-3-yl)-1H-indazol-5-yl]oxy}butan-2-yl]-2,2,2-trifluoroacetamide] | 28% | 72% | 8.3 | 6.9

Further lines, results first:

Emax at 1 µM [1] | Emax at 1 µM [2] | TA agonist pEC50 [1] | TA antagonist pIC50 [2] | SMILES
42% | 51% | 8.7 | 8.8 | CC(C)[C@H](NC(=O)C(F)(F)F)[C@H](Oc1ccc2c(cnn2-c2ccc(=O)n(C)c2)c1)c1cc(F)cc(F)c1 [Example 4]
22% | 63% | 7.7 | 6.9 | CC(C)[C@H](NC(=O)C(C)(F)F)[C@H](Oc1ccc2c(cnn2-c2ccc(=O)n(C)c2)c1)c1ccc(OC(F)(F)F)cc1 [Example 9, 2,2-difluoro-N-{(1R,2S)-3-methyl-1-{[1-(1-methyl-6-oxo-1,6-dihydropyridin-3-yl)-1H-indazol-5-yl]oxy}-1-[4-(trifluoromethoxy)phenyl]butan-2-yl}propanamide]
46% | 48% | 8.4 | 7.1 | Cc1cc2c(cnn2-c2ccc(=O)n(C)c2)cc1O[C@H](c1ccccc1)[C@@H](NC(=O)C(C)(F)F)C(C)C [Example 12, 2,2-difluoro-N-[(1R,2S)-3-methyl-1-{[6-methyl-1-(1-methyl-6-oxo-1,6-dihydropyridin-3-yl)-1H-indazol-5-yl]oxy}-1-phenylbutan-2-yl]propanamide]
20% | 65% | 7.7 | 6.9 | CC(C)[C@H](NC(=O)C(F)(F)F)[C@H](Oc1ccc2c(cnn2-c2ccc(=O)n(C)c2)c1)c1cc(Cl)cc(Cl)c1 [Example 14, N-[(1R,2S)-1-(3,5-dichlorophenyl)-3-methyl-1-{[1-(1-methyl-6-oxo-1,6-dihydropyridin-3-yl)-1H-indazol-5-yl]oxy}butan-2-yl]-2,2,2-trifluoroacetamide]
27% | 64% | 8.2 | 7.3 | CC(C)[C@H](NC(=O)C(F)(F)F)[C@H](Oc1ccc2c(cnn2-c2ccc(=O)n(C)c2)c1)c1ccc(C(F)(F)F)cc1 [Example 15, 2,2,2-trifluoro-N-{(1R,2S)-3-methyl-1-{[1-(1-methyl-6-oxo-1,6-dihydropyridin-3-yl)-1H-indazol-5-yl]oxy}-1-[4-(trifluoromethyl)phenyl]butan-2-yl}acetamide]
20% | 75% | 8.0 | 6.6 | CC(C)[C@H](NC(=O)C(F)(F)F)[C@H](Oc1ccc2c(cnn2-c2ccc(=O)n(C)c2)c1)c1ccc(OC(F)F)cc1 [Example 16, N-[(1R,2S)-1-[4-(difluoromethoxy)phenyl]-3-methyl-1-{[1-(1-methyl-6-oxo-1,6-dihydropyridin-3-yl)-1H-indazol-5-yl]oxy}butan-2-yl]-2,2,2-trifluoroacetamide]
32% | 79% | 8.4 | 7.4 | CC(C)[C@H](NC(=O)C(F)(F)F)[C@H](Oc1ccc2c(cnn2-c2ccc(=O)n(C)c2)c1)c1ccc(Cl)c(F)c1 [Example 17, N-[(1R,2S)-1-(4-chloro-3-fluorophenyl)-3-methyl-1-{[1-(1-methyl-6-oxo-1,6-dihydropyridin-3-yl)-1H-indazol-5-yl]oxy}butan-2-yl]-2,2,2-trifluoroacetamide]
32% | 61% | 8.8 | 7.6 | CC(C)[C@H](NC(=O)C(F)(F)F)[C@H](Oc1ccc2c(cnn2-c2ccc(=O)n(C)c2)c1)c1cc(F)cc(Cl)c1 [Example 18, N-[(1R,2S)-1-[3-chloro-5-fluorophenyl]-3-methyl-1-{[1-(1-methyl-6-oxo-1,6-dihydropyridin-3-yl)-1H-indazol-5-yl]oxy}butan-2-yl]-2,2,2-trifluoroacetamide]
